Data published in patent publication US20100197605A1, “THERAPEUTIC USE OF PEPTIDE YGLF AND COMBINATION WITH KVLPVPQ” (priority 2007, published 2010).
Where no end group is shown, it is not given here.

Key:
[1] = test system: HIV-1IIIB; test: HIV-1 antiviral assay in CEM-SS cells (MTS readout)
[2] = test system: HCMV strain AD169; test: HCMV plaque formation assay in MRC-5 cells; assay type: cell-based
Protocol: Ganciclovir was used as positive control. […] The following day, peptides were added and tested in duplicates.

[3] = test system: RAW 264.7 cells; test: Phagocytosis assay (Fluorescein-labeled Escherichia coli, flow cytometry); details: 10 micrograms per ml, single peptide, 30 min preincubation, 60 min ingestion
Protocol: RAW 264.7 (Mouse leukaemic monocyte macrophage cell line) cells were obtained from ATCC and grown in RPMI 1640 medium containing 10% FBS. Cells were incubated in 12×75 mm tubes at 37° C. with test peptides—10 micrograms per ml—for 30 min prior to adding Fluorescein-labeled Escherichia coli bacteria as the agent to be ingested. After the cells were incubated for additional 60 min at 37° C. and allowed to ingest the Fluorescein-labeled Escherichia coli bacteria, cells were fixed with 1% paraformaldehyde. The samples were then analyzed by flow cytometry to determine the amount of phagocytosis as a function of brightness (the greater the phagocytic activity, the more fluorescence in the macrophage population). Data are reported as % positive and the mean fluorescence intensity (MFI) of positively stained cells.

[4] = test system: IFNγ, spleen cells; test: Th1/Th2 cytokine profiling assay, IFNγ; assay type: cell-based, Balb/c mice; details: 10 micrograms per ml; Ovalbumin restimulation; 72 hours
Source text: (§1) The Balb/c mice (originated in 1923, it is a popular strain and is used in many different research disciplines. Also classified as an inbred from the production of 20 or more successive brother-sister matings, the Balb/c mouse is albino and small in size) were immunized on Days 1, 15, and 29 with Ovalbumin (Ovalbumin is the main protein found in egg white, commonly used to stimulate an immunological reaction in test animals) in PBS (5 micrograms/injection). On day 50, spleens of the mice were harvested (3 weeks after last boost with Ovalbumin). […] Thereafter, additional Ovalbumin was added to the cells at 10 micrograms/ml for in vitro restimulation of the cells. 72 hours later, cell supernatants were harvested and assayed using the Becton Dickinson Mouse Th1/Th2 Cytokine CBA Kit. This kit can be used to measure Interleukin-2 (IL-2), Interleukin-4 (IL-4), Interleukin-5 (IL-5), Interferon-γ (IFN-γ), and Tumor Necrosis Factor-α (TNF-α) protein levels in a single sample.

[5] = test system: TNF-a, spleen cells; test: Th1/Th2 cytokine profiling assay, TNF-a; assay type: cell-based, Balb/c mice; details: 10 micrograms per ml; Ovalbumin restimulation; 72 hours
Source text: as §1

[6] = test system: IL-5, spleen cells; test: Th1/Th2 cytokine profiling assay, IL-5; assay type: cell-based, Balb/c mice; details: 10 micrograms per ml; Ovalbumin restimulation; 72 hours
Source text: as §1

[7] = test system: IL-2, spleen cells; test: Th1/Th2 cytokine profiling assay, IL-2; assay type: cell-based, Balb/c mice; details: 10 micrograms per ml; Ovalbumin restimulation; 72 hours
Source text: as §1

[8] = test system: HUVEC; test: Endothelial tube formation assay; assay type: cell-based, human; details: 10 micrograms per ml, single peptide, 20 hours
Source text: Positive control was vehicle only.

[9] = test system: cyclic AMP generation in human peripheral blood mononuclear cells (PBMC); test: cAMP induction assay (ELISA); assay type: cell-based; details: single peptide, 10 min at 37° C.
Protocol: The cAMP kit was used as an immunoassay for the quantitative determination of cyclic AMP generation in human peripheral blood mononuclear cells (PBMC). PBMC were placed in 96-well microtitier plates (50 microliters of cells at 4×10^6/ml) and 50 microliters of medium alone (background control), forskolin (cAMP positive control; 50 micrograms per ml), or test peptides were added. Plates were mixed and incubated for 10 min at 37° C. and the cells were lysed by the addition of 50 microliters of 3% perchloric acid. NaOH was added to neutralize the samples. Plates were centrifuged for 15 min at 2500 rpm and the supernatants removed. The supernatants (diluted 2-fold in assay buffer) were then assayed for the levels of cAMP by ELISA.

[10] = test system: IL-4, spleen cells; test: Th1/Th2 cytokine profiling assay, IL-4; assay type: cell-based, Balb/c mice; details: 10 micrograms per ml; Ovalbumin restimulation; 72 hours
Source text: as §1

[11] = test system: Human Peripheral Blood Mononuclear Cells (PBMC), B cell proliferation; test: B cell proliferation assay (SAC plus Interleukin-2 stimulated PBMC, 3H-thymidine); assay type: cell-based; details: 10 micrograms per ml; single peptide; SAC plus IL-2
Protocol: Human Peripheral Blood Mononuclear Cells (PBMC) were obtained from normal human donors. The B cell proliferation was induced by stimulation of the cells with the B cell mitogen Staphylococcus aureus Cowans I (SAC) plus Interleukin-2, either in the absence (positive proliferation control), or in the presence of test peptides—10 micrograms per ml—to examine their effects on the B cell response. 10^5/well PBMC were plated in 96-well microtiter plates and assayed in duplicate with the peptides. […] At the end of incubation time, the plates were harvested and the cells counted by liquid scintillation for the incorporation of ^3H-thymidine as a measure of B cell proliferation.

[12] = test system: hepatitis B virus (HBV) ayw strain; test: HBV experimental assay system, HepG2-2.2.15, secreted HBV DNA by TaqMan PCR; assay type: cell-based; details: 10 micrograms per ml, six days, HBV DNA in supernatant

Row | Compound | antiviral activity of positive control compounds [1] | antiviral activity of positive control compound [2] | increase of the phagocytic activity of murine macrophages [3] | IFNγ spleen cells; TH1 response (% of control) [4] | TNF-a spleen cells; TH1 response (% of control) [5] | IL-5 spleen cells; TH2 response (% of control) [6] | IL-2 spleen cells (% of control) [7] | inhibition of the tube formation of endothelial cells [8] [%] | induction of cAMP formation in human peripheral blood cells [9] [%] | IL-4 spleen cells; TH2 response (% of control) [10] | inhibition of the proliferation of specifically stimulated human B-cells [11] [%] | inhibition of HBV replication as compared to the virus control infection [12]
1 | Cc1cn([C@H]2C[C@H](N=[N+]=[N-])[C@@H](CO)O2)c(=O)[nH]c1=O [AZT] | expected levels of antiviral activity | – | – | – | – | – | – | – | – | – | – | –
2 | Nc1nc(O)c2ncn(COC(CO)CO)c2n1 [Ganciclovir] | – | expected levels of antiviral activity | – | – | – | – | – | – | – | – | – | –
3 | CC(C)(C)NC(=O)[C@@H]1CN(Cc2cccnc2)CCN1C[C@@H](O)C[C@@H](Cc1ccccc1)C(=O)N[C@H]1c2ccccc2C[C@H]1O [indinavir] | expected levels of antiviral activity | – | – | – | – | – | – | – | – | – | – | –
4 | Lys-Val-Leu-Pro-Val-Pro-Gln-OH (KVLPVPQ-OH) [peptide 2] | – | – | 20.0% | 41.5 % of control | 90.3 % of control | 61.6 % of control | 67.3 % of control | 15 | 4.1 | 94.9 % of control | – | –
5 | Tyr-Gly-Leu-Phe-OH (YGLF-OH) [peptide 1] | – | – | no inhibitory or activating effects | 58.6 % of control | 78.9 % of control | 51.1 % of control | 0.0 % of control | 24 | 5.1 | 0.0 % of control | 18 | no effect
